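Step 1: Grow cells in 96-well plates. Step 2: Expose to compound for 48 hours at 5 concentrations. Step 3: Interpolate endpoints linearly; if unreached, use highest concentration. Abbreviation: GI50, concentration required for 50% inhibition of growth. TGI: concentration producing complete growth inhibition.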
How the values were obtained:
Test in all cases: growth of human tumour cells (NCI), 48 h
[1] = tested on: SK-OV-3 ovarian
[2] = tested on: NCI-H226 lung
[3] = tested on: TK-10 renal
[4] = tested on: HCT-116 colon
[5] = tested on: SNB-19 CNS
[6] = tested on: OVCAR-8 ovarian
[7] = tested on: K-562 leukemia
[8] = tested on: NCI-H23 lung
[9] = tested on: 786-0 renal
[10] = tested on: HOP-62 NSCLC

SMILES	TGI [1] [µM]	TGI [2] [µM]	TGI [3] [µM]	TGI [4] [µM]	TGI [5] [µM]	TGI [6] [µM]	TGI [7] [µM]	TGI [8] [µM]	TGI [9] [µM]	TGI [10] [µM]	GI50 [1] [µM]	GI50 [2] [µM]	GI50 [3] [µM]	GI50 [4] [µM]	GI50 [5] [µM]	GI50 [6] [µM]	GI50 [7] [µM]	GI50 [8] [µM]	GI50 [9] [µM]	GI50 [10] [µM]
Cc1c(Cl)cccc1NC(=O)C(=O)c1c(O)c2ccc(O)cc2oc1=O	> 100	> 100	> 100	> 100	> 100	> 100	> 100	> 100	> 100	> 100										
Cn1cc(-c2csc(-c3cn(C(=O)OC(C)(C)C)c4ccccc34)n2)c2cccnc21	48.2	20.6	42.2	17.8	30.1	33.9	> 100	30.9	16.4	30.4	10.1	3.07	15.9	4.7	10.4	6.03	2.02	11.2	4.92	12.1
CCSc1nc(N)c2cnn(CC)c2n1	> 100	30.9	36.1	32.8	> 100	19.4	> 100	22	> 100	80.7	23.9	3.41	4.56	5.94	30.2	3.21	9.11	10.3	26.5	20.1
CN(C)C(=S)/N=c1\ss/c(=N\S(=O)(=O)c2ccccc2)n1C	> 100	> 100	> 100	> 100	> 100	> 100	> 100	> 100	> 100	> 100										
O=C(/C=C/c1ccc(Cl)cc1Cl)c1ccc(Cl)cc1Cl	> 100	40.8	> 73.2	17.1	> 100	39.6	31.4	67.2	61.8	> 68.9	37.8	19.9	28	5.82	29	16.6	10.4	20.5	22	26.1
CC1=C(SCCC(=O)OC(C[Se]C2=C(C)C(=O)c3ccccc3C2=O)C(=O)NC(C)(C)C)C(=O)c2ccccc2C1=O (stereo not given)	2.74	4.14	4.1	1.44	2.08	2.74	2.59	2.69	2.91	1.68	1.43	1.87	2.52	0.384	0.867	1.28	0.774	1.13	1.57	0.32

Source: PubChem BioAssay (NCI)
